What was measured:
[1] = Concentration of 14C-GA3 in germinating soybean seedlings after seed treatment; assay type: in vivo, Glycine max
Excerpt: Application of ^14C-GA3 to Asgrow 3237 soybeans as a seed treatment via the hilum at a rate (5-20 ppm) within the range effective in rescuing the hypocotyl of dwarf, GA-deficient plants causes a substantial oversupply in the level of GA3 compared to the levels of endogenous bioactive gibberellins GA1 and GA4 in germinating soybean seeds (FIG. 39). The data upon which FIG. 39 is based are taken from the experiment described below in the section entitled “Determination of half-lives and distribution of ^14C-labeled GA compounds in planta”. More particularly, the data in FIG. 39 are taken from the experiment in which ^14C-GA3 is applied to the hilum at 20 ppm.
The concentration of GA3 in the seedling axis appeared to be directly proportional to the amount of GA3 applied to the seed.
The details are as follows.

[2] = tested on: pMON29801 soybean lines 719 and 724; experiment: GA3 soil drench, emergence and shoot length of FMV/asCPScc soybean; assay type: in vivo, Glycine max; conditions: for Plant height (cm): +3 × 10^−6 M GA3 soil drench, 7 days after planting
Excerpt: Thirty-five soybean plants are produced by transformation with pMON29801 (FIG. 7) containing the antisense CPS conserved core (asCPScc) gene driven by constitutive FMV promoter. The seed (R1) from the initial R0 transgenic lines is collected. R1 seeds are sown in 4-inch pots filled with commercial potting soil (Metromix 350) that is saturated with water or GA3 at a rate of either 3×10^−6 or 10^−5 M. Typically, 20 seeds are sown in 10 pots for each treatment, except where the seed supply is limiting. Pots are incubated in a greenhouse routinely used for soybean growth. Emergence is scored versus days after planting (DAP). Two soybean lines, 724 and 720, show a delayed emergence phenotype. Line 724 emergence is 1 to 2 days later than the control.
The timing of emergence and plant stature at for transgenic (plasmid pMON29801, FMV/asCPScc) soybean line 724 is rescued by sowing seeds in soil saturated with 3×10^−6 M GA3. At 7 days after planting (DAP), the GA3 treatment to the seeds rescued plant stature to within 10% of the A3237 control. As an additional control, soybean (A3237) seeds are coated with different concentrations of a commercial formulation of GA3 (Release®) blended with talc and sown in sand saturated with 3 mg/L ancymidol and grown in a greenhouse. Plant height is measured at 6 DAP. […] This rate is equivalent to approximately 62 mg GA3 per acre (assuming 140,000 seeds/acre).
GA3 added to plasmid pMON29801 transgenic soybean seeds as a soil drench also restores soybean emergence timing and plant height during early seedling growth. Rates of GA3 between 1×10^−6 and 1×10^−5 M, when added to soil either immediately before planting or immediately after, restores normal shoot length in emerged Line #719 seedlings (Table 5).

[3] = tested on: wild-type soybeans (line A3237); experiment: Summary of first two greenhouse experiments, elongation of wild-type soybeans
Procedure: Compounds are first prepared as 25 mg/ml solutions in ethanol as described above, and then diluted into 40 ml of water to prepare the final 0.25 mg/ml treatment solutions. Visual observations on solubilities (milky, clear, etc.) of the treatment solutions are noted. The treatment solutions are divided into two 20 ml portions, each in 50 ml plastic centrifuge tubes. In addition to treating seeds with solutions containing the test compounds, untreated seeds and seeds imbibed in ethanol-water solution (300 μl ethanol in 30 mls of water) are also included in this experiment as controls. In the latter case, 20 seeds are imbibed in 30 mls of solution for six hours.
Two soybean varieties are selected for testing: constitutively GA-deficient transgenic dwarf soybean line 719 (plasmid pMON29801, constitutive FMV promoter/asCPScc; which is a mixture of 719−2 and 719+17), and A3237, the wild-type parent material. […] After imbibition, seeds are removed from the test tubes, placed on wax paper to dry, and planted in bread pans containing farm soil amended with fertilizer at 20 seeds/pan. Seeds are covered with 0.5″ of vermiculite. Pans are transferred to the greenhouse, which had day/night temperatures of 86/68° F. (30/20° C.), and subirrigated. Illumination is at a light intensity of 300-400 μmolm^−2s^−1 photosynthetic photon flux; 16 hours light/8 hours dark. Subsequent waterings are also through sub-irrigation until the test is terminated three weeks later. Observations included the number of dwarf, intermediate, and tall plants; plant height; uniformity of rescue; and any visual effects.
All compounds are tested at final concentrations of 0.25, 0.025, and 0.0025 mg/ml except for GA9, which is tested at 0.125, 0.0125, and 0.00125 mg/ml. (The compounds are tested in Experiment I at only one concentration, i.e., 0.25 mg/ml). Test tubes contained […] of ethanol solution per tube. Final volumes are made up to 30 ml with deionized water. After shaking, the treatment solutions (15 ml each) are transferred to each of two 50 ml test tubes. Treatments 1 to 27 are performed on wild-type line A3237; treatments 28 to 54 are performed on constitutively GA-deficient transgenic dwarf soybean line 719 (a mixture of 719−2 and 719+17). Twenty seeds are used in each treatment. Dry seed, ethanol/water-imbibed seed (1% ethanol in water, v/v), and water-imbibed seeds are included as controls. Seeds are imbibed for 6 hours in the test solutions, then planted in bread pans containing Metromix 350 (The Scotts Company, Marysville, Ohio), and covered with 0.5″ Metro-mix. Covered pans are transferred to the greenhouse and subirrigated. Illumination is at a light intensity of 300-400 μmolm^−2s^−1 photosynthetic photon flux; 16 hours light/8 hours dark. Subsequent waterings are also through sub-irrigation until the test is terminated three weeks later. Observations included the number of dwarf, intermediate, and tall plants; plant height; uniformity of rescue; and any visual effects. Digital photographs are also taken.

[4] = 0.0025 mg/ml solution (ethanol-water)
[5] = 0.025 mg/ml solution (ethanol-water)
[6] = 0.25 mg/ml solution (ethanol-water)

| SMILES | GA3 in seedling axis relative to combined endogenous bioactive GAs in untreated tissue ([1]; 20 ppm, 1 DAP) | concentration at 1 day after planting ([1]; Asgrow 3237, soybean (Glycine max), seedling axis, other: seed treatment applied to the hilum, ^14C-GA3 applied to the hilum at 20 ppm, one day after planting, read-out: calculated concentration of GA3 delivered to the seedling axis) | Plant height (cm) ([2]; R1 line 719) | Plant height (cm) ([2]; R1 line 724) | plant stature, difference from the A3237 control ([2]; line 724, soil saturated with 3×10^−6 M GA3, 7 DAP) | Elongation of wild-type soybeans [3, 4] | Elongation of wild-type soybeans [3, 5] | Elongation of wild-type soybeans [3, 6] | Elongation of wild-type soybeans ([3]; 0.00125 mg/ml solution (ethanol-water)) | Elongation of wild-type soybeans ([3]; 0.0125 mg/ml solution (ethanol-water)) | Elongation of wild-type soybeans ([3]; 0.125 mg/ml solution (ethanol-water)) |
| --- | --- | --- | --- | --- | --- | --- | --- | --- | --- | --- | --- |
| C=C1C[C@]23C[C@@]1(O)CC[C@H]2[C@@]12C=C[C@H](O)[C@@](C)(C(=O)O1)[C@H]2[C@@H]3C(=O)O [GA3, gibberellic acid] | approximately 100 times higher | 4.31 µM | 11.3 (1.0) cm | 10.9 (0.9) cm | ≤ 10% | + | + | + |  |  |  |
| C=C1C[C@]23C[C@@]1(O)CC[C@H]2[C@@]12CC=C[C@@](C)(C(=O)O1)[C@H]2[C@@H]3C(=O)O [GA5] |  |  |  |  |  | 0 | 0 | + |  |  |  |
| C=C1C[C@]23C[C@H]1CC[C@H]2[C@@]12CCC[C@@](C)(C(=O)O1)[C@H]2[C@@H]3C(=O)O [GA9] |  |  |  |  |  |  |  | + | − | 0 | 0 |
| C=C1C[C@]23C[C@H]1CC[C@H]2[C@]1(C)CCC[C@@](C)(C(=O)O)[C@H]1[C@@H]3C(=O)O [GA12] |  |  |  |  |  | 0 | − | − |  |  |  |
| C=C1C[C@@]23CC[C@H]4[C@@](C)(CCC[C@@]4(C)C(=O)O)[C@@H]2CC[C@@H]1C3 [kaurenoic acid] |  |  |  |  |  | 0 | 0 | − |  |  |  |

Source: patent US6723897B2, “Methods for controlling gibberellin levels” (Monsanto Technology, LLC, priority 1998, dated 2004)
